# Measurements as given in PubChem BioAssay (NCI).
#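 How tested: cells in 96-well plates exposed to compound for 48 hours at five concentrations. TGI is the concentration that stops growth completely.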
# Assays:
# Experiment in all cases: inhibition of tumour cell growth, NCI panel, 48 h
# [1] = tested on: SK-MEL-2 melanoma
# [2] = tested on: HCC-2998 colon
# [3] = tested on: SNB-19 CNS
# [4] = tested on: HCT-15 colon
# [5] = tested on: MDA-MB-231 breast
# [6] = tested on: A498 renal
# [7] = tested on: NCI-H23 lung
# [8] = tested on: HCT-116 colon
# [9] = tested on: NCI/ADR-RES ovarian
# [10] = tested on: UACC-257 melanoma
# [11] = tested on: OVCAR-3 ovarian
# [12] = tested on: OVCAR-5 ovarian
# [13] = tested on: HT29 colon
# [14] = tested on: PC-3 prostate
# [15] = tested on: SF-539 CNS
# [16] = tested on: U251 CNS
# [17] = tested on: UO-31 renal
# [18] = tested on: MCF7 breast
# [19] = tested on: SW-620 colon
# [20] = tested on: SK-MEL-5 melanoma
# [21] = tested on: MDA-MB-435
# [22] = tested on: KM12 colon
# [23] = tested on: NCI-H522 lung
# [24] = tested on: ACHN renal
# [25] = tested on: SN12C renal
# [26] = tested on: MALME-3M melanoma
# [27] = tested on: EKVX NSCLC
# [28] = tested on: NCI-H226 lung
# [29] = tested on: SF-268 CNS
# [30] = tested on: COLO 205 colon
# [31] = tested on: LOX IMVI melanoma
# [32] = tested on: DU-145 prostate
# [33] = tested on: SK-MEL-28 melanoma
# [34] = tested on: RPMI-8226 leukemia
# [35] = tested on: M14 melanoma
# [36] = tested on: TK-10 renal
# [37] = tested on: OVCAR-4 ovarian
# [38] = tested on: SF-295 CNS
# [39] = tested on: MDA-N
# [40] = tested on: OVCAR-8 ovarian
# [41] = tested on: A549 NSCLC
# [42] = tested on: HL-60(TB) leukemia
# [43] = tested on: CAKI-1 renal
# [44] = tested on: NCI-H460 lung
# [45] = tested on: T-47D breast
# [46] = tested on: HOP-62 NSCLC
# [47] = tested on: RXF 393 renal
# [48] = tested on: MOLT-4 leukemia
# [49] = tested on: CCRF-CEM leukemia
# [50] = tested on: UACC-62 melanoma
# [51] = tested on: IGROV1 ovarian
# [52] = tested on: HS 578T breast
# [53] = tested on: SNB-75 CNS
# [54] = tested on: 786-0 renal
# [55] = tested on: SR leukemia
structure (smiles),measurement,setting,value
O=C(O)c1cc(-c2ccc3c(O)ccc(O)c3c2)ccc1O,TGI,[1],34.3 µM
same,TGI,[2],32.6 µM
same,TGI,[3],> 100 µM
same,TGI,[4],34.4 µM
same,TGI,[5],39.6 µM
same,TGI,[6],32 µM
same,TGI,[7],64.9 µM
same,TGI,[8],32.6 µM
same,TGI,[9],82.4 µM
same,TGI,[10],33 µM
same,TGI,[11],43.5 µM
same,TGI,[12],32.3 µM
same,TGI,[13],43.9 µM
same,TGI,[14],26.3 µM
same,TGI,[15],30.8 µM
same,TGI,[16],41.3 µM
same,TGI,[17],31.3 µM
same,TGI,[18],39.6 µM
same,TGI,[19],28.6 µM
same,TGI,[20],28.2 µM
same,TGI,[21],34.4 µM
same,TGI,[22],43.2 µM
same,TGI,[23],36.5 µM
same,TGI,[24],33.4 µM
same,TGI,[25],31.6 µM
same,TGI,[26],36.3 µM
same,TGI,[27],34.7 µM
same,TGI,[28],44 µM
same,TGI,[29],82.9 µM
same,TGI,[30],39.4 µM
same,TGI,[31],29.8 µM
same,TGI,[32],52.3 µM
same,TGI,[33],41.5 µM
same,TGI,[34],> 100 µM
same,TGI,[35],47.7 µM
same,TGI,[36],35.6 µM
same,TGI,[37],31.2 µM
same,TGI,[38],33.8 µM
same,TGI,[39],31.6 µM
same,TGI,[40],54.4 µM
same,TGI,[41],> 100 µM
same,TGI,[42],> 100 µM
same,TGI,[43],30.2 µM
same,TGI,[44],48.5 µM
same,TGI,[45],35.3 µM
same,TGI,[46],98.9 µM
same,TGI,[47],27.9 µM
same,TGI,[48],16.3 µM
same,TGI,[49],5.58 µM
same,TGI,[50],33.8 µM
same,TGI,[51],31.9 µM
same,TGI,[52],73.5 µM
same,TGI,[53],60.1 µM
same,TGI,[54],30.2 µM
same,TGI,[55],> 100 µM
